Reference: US11384078B2, “5,6-fused-bicyclic compounds and compositions for the treatment of parasitic diseases” (NOVARTIS AG, priority 2017, dated 2022)
Like-named read-outs stand apart in the source and are kept apart here.

What was measured:
Format in all cases: cell-based
[1] = tested on: Leishmania donovani axenic amastigote; assay: In vitro assay for growth inhibition of Leishmania donovani axenic amastigote (Cell TiterGlo luminescence); settings: read-out: L. donovani amastigotes EC50
Experimental: Abbreviations as used herein below have the corresponding meaning: • CPRG Chlorophenol Red-P-D-galactopyranoside • ATP adenosine triphosphate • BSA bovine serum albumin • DMSO dimethyl sulfoxide • FBS fetal bovine serum • PBS phosphate buffered saline • RPMI 1640 Rosweli Park Memorial Institute (RPMI) 1640 medium In Vitro Assay for Growth Inhibition of Leishmania donovani Axenic Amastiqote
Leishmania donovani axenic amastigote parasites are grown at 37° C., 5% CO2 in media made of RPMI 1640, 4 mM L-glutamine, 20% heat inactivated FBS, 100 units/ml of penicillin and 100 μg/ml of streptomycin, 23 μM folic acid, 100 μM adenosine, 22 mM D-glucose, 25 mM MES. The pH of media is adjusted to 5.5 at 37° C. using HCl. 20 μL of media is first dispensed into 384 well plates and 100 nL of the compounds of invention in DMSO are added to the plate wells. At the same time control compounds and DMSO are added to plates to serve as the positive and negative controls, respectively. 40 μL of parasite culture (9600 parasites) are then added to the plate wells. The plates are then placed into incubators. After two days incubation, 20 μL of Cell TiterGlo® (Promega) is added to the plate wells. The luminescence signal of each well is measured using the Envision reader (Perkin Elmer).

[2] = tested on: Trypanosoma brucei brucei (Lister 427) strain; assay: Assay for growth inhibition against Trypanosoma brucei brucei (Cell TiterGlo ATP luminescence); settings: T. brucei brucei (Lister 427), read-out: T. Brucei (HAT) EC50
Experimental: Assay for Growth Inhibition Against Trypanosoma brucei brucei
The proliferation is quantified by the addition of Cell TiterGlo® (Promega®) a luminescent cell viability assay that measures the number of viable cells in culture based on the quantification of cellular ATP amount, which is an indicator of metabolically active cells.
Trypanosoma brucei brucei (Lister 427) strain was grown in Hirumi 9 (HMI-9) media supplemented with 10% v/v fetal bovine serum (FBS) and 10% v/v serum plus. For measurement of cell proliferation inhibition, test compounds were three fold serially diluted in duplicates to 384-well white plates, resulting in 10 dilutions for each compound. A volume of 40 μL of T. b. brucei culture (10,000 parasites/mL) was added to each well, and the assay plates were incubated at 37° C. for 2 days in a CO2 incubator. Growth inhibition was monitored by measuring ATP levels, which, is used as a surrogate marker for growth. Relative luminescence units were measured using TECAN® M1000 after 30 min of adding 40 μl of Cell TiterGlo®. IC50 values were determined by analyzing the data using HELIOS software. IC50 is defined as the lowest concentration of the compound that inhibited 50% growth of the T. b. brucei wild type strain compared to untreated controls.

[3] = tested on: Trypanosoma cruzi amastigotes cultured in 3T3 fibroblast cells; assay: Assay for growth inhibition of kinetoplastid parasite Trypanosoma cruzi (beta-galactosidase Tulahuen strain, CPRG readout); settings: read-out: Buckner infectious T. cruzi EC50
Source text: Assay for Growth Inhibition of Kinetoplastid Parasite Trypanosoma cruzi
Compounds of the invention can be assayed for inhibitor activity against Trypanosoma cruzi amastigotes cultured in 3T3 fibroblast cells. The assay is done using the mammalian stage (amastigotes) of T. cruzi that replicates in the intracellular space of host cells. The host cells are initially infected with the culture-derived trypomastigotes that rapidly invade and then divide as amastigotes. The protocol uses the Tulahuen strain of T. cruzi that has been engineered to express the E. coli beta-galactosidase gene (Lac-Z) (Antimicr. Agents Chemoth. 40:2592, 1996). This allows for a colorimetric readout by using the substrate CPRG and an absorbance plate reader.
3T3 fibroblast cells are re-suspended in RPMI-1640 medium without phenol red medium supplemented with 10% FBS (heat inactivated), 100 μg/ml penicillin, and 100 μg/ml streptomycin. Forty μL of suspension (1,000 cells) is dispensed into 384-well plates and incubated overnight at 37° C. temperature and in atmosphere containing 5% CO2. The following day, 100 nL of compounds of the invention in DMSO are added to plate wells containing 3T3 cells. At the same time control compounds (benznidazole and nifurtimox) and DMSO are added to plates to serve as the positive and negative controls, respectively. After that, 10 μL of media containing 10,000 T. cruzi trypomastigotes are added to each plate well and plates are placed back into incubators. After 6 day incubation, 10 μL of reagent solution (0.6 mM CPRG, 0.6% NP-40 in PBS) is added to plates and incubated at room temperature for 2 hours. Absorbance is then measured on SpectraMax GEMINI fluorimeter to determine relative number of T. cruzi cells present in each plate well.

[4] = Leishmania donovani, L. donovani axenic amastigotes in vitro
[5] = Trypanosoma cruzi, Fibroblast, T. cruzi amastigotes in 3T3 fibroblast cells
[6] = Leishmania donovani, Table 4: compound of Formula (I) compared with compounds having a different core
[7] = Trypanosoma cruzi, Fibroblast, Table 4: compound of Formula (I) compared with compounds having a different core

Row | Compound | EC50 [1, 4] [nM] | EC50 [2] [nM] | EC50 [3, 5] [nM] | other results
1 | O=C(CC1CC1)Nc1ccc(F)c(-n2cc3cc(-c4ccccn4)cnc3n2)c1 [Compound 13, 2-cyclopropyl-N-{4-fluoro-3-[5-(pyridin-2-yl)-2H-pyrazolo[3,4-b]pyridin-2-yl]phenyl}acetamide] | 71 | – | – | EC50 ([2]; Trypanosoma brucei): < 23 nM
2 | O=C(Nc1ccc(F)c(-n2cc3cc(-c4ncccc4F)cnc3n2)c1)N1CC(F)C1 [Compound 187, 3-fluoro-N-(4-fluoro-3-(5-(3-fluoropyridin-2-yl)-2H-pyrazolo[3,4-b]pyridin-2-yl)phenyl)azetidine-1-carboxamide] | 1.3 | – | – | EC50 ([2]; Trypanosoma brucei): < 23 nM
3 | O=C(Nc1ccc(F)c(-n2cc3cc(-c4ncccc4Cl)cnc3n2)c1)N1CC(F)C1 [Compound 188, N-{3-[5-(3-chloropyridin-2-yl)-2H-pyrazolo[3,4-b]pyridin-2-yl]-4-fluorophenyl}-3-fluoroazetidine-1-carboxamide] | 2.4 | – | – | EC50 ([2]; Trypanosoma brucei): < 23 nM
4 | O=C(Nc1ccc(F)c(-n2cc3cc(N4CC(F)C4)cnc3n2)c1)N1CCC1 [Compound 40, N-{4-fluoro-3-[5-(3-fluoroazetidin-1-yl)-2H-pyrazolo[3,4-b]pyridin-2-yl]phenyl}azetidine-1-carboxamide] | – | < 23 | – | –
5 | O=C(Nc1ccc(F)c(-n2cc3cc(N4CCC45COC5)cnc3n2)c1)N1CC(F)C1 [Compound 191, 3-fluoro-N-[4-fluoro-3-(5-{6-oxa-1-azaspiro[3.3]heptan-1-yl}-2H-pyrazolo[3,4-b]pyridin-2-yl)phenyl}azetidine-1-carboxamide] | – | < 23 | – | –
6 | O=C(Nc1ccc(F)c(-n2cc3cc(N4CC5(CC5)C4)cnc3n2)c1)N1CC(F)C1 [Compound 193, N-[3-(5-{5-azaspiro[2.3]hexan-5-yl}-2H-pyrazolo[3,4-b]pyridin-2-yl)-4-fluorophenyl}-3-fluoroazetidine-1-carboxamide] | – | < 23 | – | –
7 | C[C@@H]1CN(c2cnc3nn(-c4cc(NC(=O)N5CC(F)C5)ccc4F)cc3c2)C[C@H](C)O1 [Compound 190, N-(3-{5-[(2R,6S)-2,6-dimethylmorpholin-4-yl]-2H-pyrazolo[3,4-b]pyridin-2-yl]-4-fluorophenyl)-3-fluoroazetidine-1-carboxamide] | – | > 50000 | – | –
8 | COCC1CN(c2cnc3nn(-c4cc(NC(=O)N5CC(F)C5)ccc4F)cc3c2)C1 [Compound 192] | – | < 23 | – | –
9 | O=C(Nc1ccc(F)c(-n2cc3cc(N4CC(F)C4)cnc3n2)c1)N1CC(F)C1 [Compound 58, 3-fluoro-N-{4-fluoro-3-[5-(3-fluoroazetidin-1-yl)-2H-pyrazolo[3,4-b]pyridin-2-yl]phenyl}azetidine-1-carboxamide] | – | < 23 | – | –
10 | O=C(Nc1ccc(F)c(-n2cc3cc(C4COCCO4)cnc3n2)c1)N1CCC1 (stereo not shown) [Compound 289, N-{3-[5-(1,4-dioxan-2-yl)-2H-pyrazolo[3,4-b]pyridin-2-yl]-4-fluorophenyl}azetidine-1-carboxamide] | 199 | – | – | EC50 ([2]; Trypanosoma brucei): 208 nM
11 | O=C(Nc1ccc(F)c(-n2cc3cc(C4CCCC4)cnc3n2)c1)N1CC(F)C1 [Compound 18, N-(3-{5-cyclopentyl-2H-pyrazolo[3,4-b]pyridin-2-yl}-4-fluorophenyl)-3-fluoroazetidine-1-carboxamide] | 290 | – | 160 | –
12 | CC(C)c1cnc2nn(-c3cc(NC(=O)C4CCC4)ccc3F)cc2c1 [Compound 210, N-{4-fluoro-3-[5-(propan-2-yl)-2H-pyrazolo[3,4-b]pyridin-2-yl]phenyl}cyclobutanecarboxamide] | 494 | – | 79 | –
13 | Cc1nc(C)c(C(=O)Nc2ccc(F)c(-c3nc4ncc(C(C)C)cn4n3)c2)o1 [reference compound] | – | – | – | EC50 [1, 6]: 210 nM; EC50 [3, 7]: 45 nM
14 | O=C(Nc1ccc(F)c(-n2cc3cc(-c4ncccc4Cl)cnc3n2)c1)C1CC1 [Compound 333, N-{3-[5-(3-chloropyridin-2-yl)-2H-pyrazolo[3,4-b]pyridin-2-yl]-4-fluorophenyl}cyclopropanecarboxamide] | 43 | – | 16 | –
15 | O=C(Nc1ccc(F)c(-n2cc3cc(N4CCOCC4)cnc3n2)c1)c1ccco1 [Compound 122, N-{4-fluoro-3-[5-(morpholin-4-yl)-2H-pyrazolo[3,4-b]pyridin-2-yl]phenyl}furan-2-carboxamide] | 15 | – | 4.2 | –
16 | Cc1ccc(C(=O)Nc2ccc(F)c(-n3cc4cc(C(C)C)cnc4n3)c2)o1 [Compound 109, N-{4-fluoro-3-[5-(propan-2-yl)-2H-pyrazolo[3,4-b]pyridin-2-yl]phenyl}-5-methylfuran-2-carboxamide] | 74 | – | 15 | –
17 | Cc1nc(C)c(C(=O)Nc2ccc(F)c(-c3cn4cc(C(C)C)cnc4n3)c2)o1 [reference compound] | – | – | – | EC50 [1, 6]: 180 nM; EC50 [3, 7]: 48 nM
18 | O=C(Nc1ccc(F)c(-n2cc3cc(N4C[C@@H](F)[C@H](F)C4)cnc3n2)c1)N1CC(F)C1 [Compound 194, N-(3-{5-[(3R,4R)-3,4-difluoropyrrolidin-1-yl]-2H-pyrazolo[3,4-b]pyridin-2-yl]-4-fluorophenyl)-3-fluoroazetidine-1-carboxamide] | – | < 23 | – | –
19 | O=C(Nc1ccc(F)c(-n2cc3cc(N4CC(F)(F)C4)cnc3n2)c1)N1CCC1 [Compound 92, N-{3-[5-(3,3-difluoroazetidin-1-yl)-2H-pyrazolo[3,4-b]pyridin-2-yl]-4-fluorophenyl}azetidine-1-carboxamide] | – | < 23 | – | –
20 | O=C(Nc1ccc(F)c(-n2cc3cc(N4CC5(C4)CC5(F)F)cnc3n2)c1)N1CC(F)C1 [Compound 261, N-[3-(5-{1,1-difluoro-5-azaspiro[2.3]hexan-5-yl}-2H-pyrazolo[3,4-b]pyridin-2-yl)-4-fluorophenyl}-3-fluoroazetidine-1-carboxamide] | 4 | – | 2 | –
21 | O=C(Nc1ccc(F)c(-n2cc3cc(N4CCC(F)(F)C4)cnc3n2)c1)N1CC(F)C1 [Compound 262, N-{3-[5-(3,3-difluoropyrrolidin-1-yl)-2H-pyrazolo[3,4-b]pyridin-2-yl]-4-fluorophenyl}-3-fluoroazetidine-1-carboxamide] | 33 | – | 4 | –
22 | O=C(Nc1ccc(F)c(-n2cc3cc(C4CCCCC4)cnc3n2)c1)c1ccco1 [Compound 57, N-(3-{5-cyclohexyl-2H-pyrazolo[3,4-b]pyridin-2-yl}-4-fluorophenyl)furan-2-carboxamide] | 710 | – | 360 | –
23 | CC(C)c1cnc2nn(-c3cc(NC(=O)CC(C)(C)C)ccc3F)cc2c1 [Compound 217, N-{4-fluoro-3-[5-(propan-2-yl)-2H-pyrazolo[3,4-b]pyridin-2-yl]phenyl}-3,3-dimethylbutanamide] | 14500 | – | 4350 | –
24 | Cc1nc(C)c(C(=O)Nc2ccc(F)c(-n3cc4cc(N5CC(C(F)(F)F)C5)cnc4n3)c2)o1 [Compound 279] | – | – | – | EC50 ([1]; L. donovani axenic amastigotes in vitro): 10 nM; EC50 ([3]; T. cruzi amastigotes in 3T3 fibroblast cells): 3 nM
